Test systems include A498; ACHN; CAKI-1; HOP-62; Hs-578T; IGROV-1; K562; KM12; MDA-MB-231; Malme-3M; NCI-H522; OVCAR-4; OVCAR-8; RXF 393; SF-295; SK-MEL-28; SK-MEL-5; SNB-75; T47D; UO-31.
What all share (test): inhibition of tumour cell growth, NCI panel, 48 h

The text below walks through data of ChEMBL document CHEMBL1201862, “PubChem BioAssay data set” (2004).

SMILES strings stand for the structures.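 Dose response: 5 concentrations. Exposure: 48 h. Format: 96-well plates. Endpoint: linear interpolation; highest concentration if not reached. At the GI50, growth is halved.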 Active and inactive are the calls of the source. Rule as the data show it: active = GI50 up to about 1.1 µM and inactive = higher.

Regarding `Cc1c(-c2ccccc2)c(-c2ccc(OCCN(C)C)cc2)n2ccccc12`, the GI50 was 14.8 µM (inactive) with A498; 13.9 µM (inactive) with ACHN; 11.2 µM (inactive) with CAKI-1; 13.1 µM (inactive) with HOP-62; 5.41 µM (inactive) in the experiment with Hs-578T; 10.1 µM (inactive) in the experiment with IGROV-1. Besides, the GI50 is 1.84 µM (inactive) in the experiment on K562; 3.82 µM (inactive) in the experiment with KM12; 10.9 µM (inactive) in the experiment on MDA-MB-231; 4.38 µM (inactive) in the experiment on Malme-3M; 9.06 µM (inactive) in the experiment with NCI-H522; 12.4 µM (inactive) with OVCAR-4. The GI50 with OVCAR-8 is 13.8 µM (inactive); in the experiment with RXF 393, 7.69 µM (inactive); with SF-295, 12.2 µM (inactive); in the experiment with SK-MEL-28 it was 1.79 µM (inactive); in the experiment on SK-MEL-5, 1.87 µM (inactive); in the experiment on SNB-75, 8.38 µM (inactive). The GI50 in the experiment with T47D was 10.4 µM (inactive); in the experiment with UO-31, 9.48 µM (inactive).
On to `CCSc1n/c(=C\c2ccco2)c2nnnn12`, for which the GI50 in the experiment on A498, with ACHN, in the experiment with CAKI-1, in the experiment on HOP-62, in the experiment on Hs-578T and in the experiment with IGROV-1 was > 100 µM (inactive) in each case. In addition, the GI50 with KM12, in the experiment with MDA-MB-231, in the experiment on Malme-3M, in the experiment with NCI-H522, with OVCAR-4 and in the experiment on OVCAR-8 was > 100 µM (inactive) each time. The GI50 in the experiment on RXF 393, in the experiment on SF-295, with SK-MEL-28, with SK-MEL-5, with SNB-75 and in the experiment with T47D was > 100 µM (inactive) in each case. The GI50 in the experiment with UO-31 was > 100 µM (inactive).
In the case of `CCCCCCCCCCCCCCCCOCC(CCl)OP(=O)(O)OP(=O)(O)OCC1OC(n2ccc(N)nc2=O)C(O)C1O` (stereo unspecified), the GI50 in the experiment with A498, in the experiment with ACHN, in the experiment on CAKI-1, in the experiment on HOP-62, in the experiment with Hs-578T and with IGROV-1 was > 100 µM (inactive) in each case. In addition, the GI50 in the experiment with K562, with KM12, with MDA-MB-231, in the experiment with Malme-3M, in the experiment on NCI-H522 and in the experiment on OVCAR-4 was > 100 µM (inactive) throughout. For the same compound, the GI50 with OVCAR-8 was > 100 µM (inactive); with RXF 393, > 100 µM (inactive); in the experiment with SF-295, > 100 µM (inactive); with SK-MEL-28, 99.3 µM (inactive); in the experiment with SK-MEL-5 it was > 100 µM (inactive); with SNB-75, 6.07 µM (inactive). Besides, the GI50 with T47D and in the experiment with UO-31 was > 100 µM (inactive) throughout.
Turning to `Cc1[nH]c2ncn3[nH]c(=S)nc3c2c1Cc1ccccc1`, the GI50 with A498 was > 100 µM (inactive); in the experiment on ACHN, > 100 µM (inactive); with CAKI-1 it was > 100 µM (inactive); with HOP-62 it was > 100 µM (inactive); in the experiment with Hs-578T, 62.7 µM (inactive); in the experiment with IGROV-1 it was 48.1 µM (inactive). Also, the GI50 with KM12 was > 100 µM (inactive); with MDA-MB-231, > 100 µM (inactive); in the experiment with Malme-3M it was > 100 µM (inactive); in the experiment with NCI-H522, 72.4 µM (inactive); with OVCAR-4, > 100 µM (inactive); with OVCAR-8, > 100 µM (inactive). For the same compound, the GI50 is 26.5 µM (inactive) with RXF 393; > 100 µM (inactive) with SF-295; > 100 µM (inactive) in the experiment on SK-MEL-28; > 100 µM (inactive) in the experiment with SK-MEL-5; 25.2 µM (inactive) with SNB-75; 28.8 µM (inactive) in the experiment on T47D. Moreover, the GI50 in the experiment with UO-31 was > 100 µM (inactive).
For the compound `C/C(=N\NC(=S)N1CCC(N2CCCCC2)CC1)c1ccccn1`, the GI50 with A498 was 2.37 µM (inactive); in the experiment with ACHN it was 2.41 µM (inactive); with CAKI-1 it was 2.07 µM (inactive); in the experiment with Hs-578T, 4.72 µM (inactive); in the experiment with IGROV-1 it was 3.54 µM (inactive); with K562, 1.29 µM (inactive). Moreover, the GI50 in the experiment with KM12 was 2.81 µM (inactive); in the experiment with MDA-MB-231, 1.9 µM (inactive); in the experiment with Malme-3M, > 100 µM (inactive); in the experiment on NCI-H522, < 0.01 µM (active); with OVCAR-4 it was 4.73 µM (inactive); in the experiment on OVCAR-8, 3.21 µM (inactive). Also, the GI50 with RXF 393 is 1.36 µM (inactive); in the experiment on SF-295, 2.28 µM (inactive); with SK-MEL-28, 4.12 µM (inactive); with SK-MEL-5, 2.66 µM (inactive); with SNB-75, 2.87 µM (inactive); in the experiment on T47D, 1.39 µM (inactive). Further, the GI50 in the experiment on UO-31 was 1.9 µM (inactive).
With `CCOC(=O)Nc1ccc(S(=O)(=O)Nc2ccc(Br)cc2)cc1`, the GI50 was 13.6 µM (inactive) in the experiment with A498; 30.1 µM (inactive) in the experiment with ACHN; 35.8 µM (inactive) in the experiment on CAKI-1; 33.5 µM (inactive) in the experiment with HOP-62; 30.6 µM (inactive) in the experiment with Hs-578T; 35 µM (inactive) with IGROV-1. The GI50 with K562 is 17.3 µM (inactive); in the experiment with KM12, 37.3 µM (inactive); with MDA-MB-231 it was 29.7 µM (inactive); in the experiment with Malme-3M, 74 µM (inactive); with NCI-H522, 29 µM (inactive); in the experiment with OVCAR-4 it was 13.6 µM (inactive). Besides, the GI50 in the experiment with OVCAR-8 is 23.3 µM (inactive); in the experiment on RXF 393, 22 µM (inactive); in the experiment with SF-295 it was 30.9 µM (inactive); in the experiment with SK-MEL-28, 39.8 µM (inactive); in the experiment on SK-MEL-5, 18.5 µM (inactive); in the experiment on T47D, 31.5 µM (inactive). The GI50 in the experiment with UO-31 was 34.8 µM (inactive).
In the case of `Cc1ccc2nc(C(=O)O)c(=O)[nH]c2c1`, the GI50 in the experiment on A498, with ACHN, with CAKI-1, in the experiment with HOP-62, with Hs-578T and in the experiment on IGROV-1 was > 100 µM (inactive) each time. In addition, the GI50 in the experiment with K562, with KM12, in the experiment on MDA-MB-231, in the experiment on Malme-3M, in the experiment with NCI-H522 and in the experiment with OVCAR-4 was > 100 µM (inactive) in each case. The GI50 in the experiment with OVCAR-8, in the experiment with RXF 393, in the experiment on SF-295, in the experiment on SK-MEL-28, in the experiment with SK-MEL-5 and in the experiment on T47D was > 100 µM (inactive) throughout. In addition, the GI50 in the experiment with UO-31 was > 100 µM (inactive).
With `CC1=C[C@@H](C)C[C@]2(C)CC[C@H](O2)[C@]23CC[C@](C)(C[C@H](O2)[C@@H]2O[C@@](C)(CC2=O)[C@@H](O)[C@H]2CC[C@@]4(CCC[C@@H](O4)[C@H](C)C(=O)O[C@H]4C[C@H]([C@]5(O)OCC[C@H](C)[C@@H]5O)O[C@H]4C=C1)O2)O3`, the GI50 with A498 was 0.00147 µM (active); in the experiment on ACHN, 0.00473 µM (active); with CAKI-1, < 0.001 µM (active); in the experiment on HOP-62, 0.0015 µM (active); in the experiment on Hs-578T it was 0.00115 µM (active); with IGROV-1, 0.00339 µM (active). For the same compound, the GI50 in the experiment with K562 was 0.00692 µM (active); in the experiment with KM12, 0.0586 µM (active); in the experiment with MDA-MB-231, 0.00528 µM (active); in the experiment with Malme-3M, 0.00165 µM (active); in the experiment on NCI-H522, 0.0134 µM (active); with OVCAR-4, 0.00344 µM (active). For the same compound, the GI50 in the experiment with RXF 393 is 0.00146 µM (active); in the experiment with SF-295, 0.00113 µM (active); in the experiment on SK-MEL-28, 0.00173 µM (active); with SK-MEL-5, 0.00148 µM (active); in the experiment with SNB-75 it was < 0.001 µM (active); with T47D, 0.0632 µM (active). For the same compound, the GI50 with UO-31 was 0.00408 µM (active).
For `CCCCSC1=N/C(=C\c2ccccc2O)C(Cl)=N1`, the GI50 with A498, with ACHN, in the experiment on CAKI-1, with HOP-62, in the experiment with Hs-578T and in the experiment with IGROV-1 was > 100 µM (inactive) each time. The GI50 in the experiment on KM12, in the experiment on MDA-MB-231, in the experiment on Malme-3M, in the experiment on NCI-H522, with OVCAR-4 and in the experiment with OVCAR-8 was > 100 µM (inactive) throughout. In addition, the GI50 with RXF 393, in the experiment on SF-295, with SK-MEL-28, in the experiment with SNB-75, with T47D and in the experiment on UO-31 was > 100 µM (inactive) each time.
For the compound `Cc1c(S(=O)(=O)N/C(=N\O)Nc2ccc(Cl)c(Cl)c2)sc2ccc(Cl)cc12`, the GI50 in the experiment on A498 was 18.1 µM (inactive); in the experiment on ACHN, 12.1 µM (inactive); with CAKI-1 it was 18.5 µM (inactive); with HOP-62, 18.5 µM (inactive); with Hs-578T, 28.6 µM (inactive); in the experiment with IGROV-1 it was 17.5 µM (inactive). For the same compound, the GI50 with K562 is 29.5 µM (inactive); with KM12, 16.9 µM (inactive); with MDA-MB-231, 23.8 µM (inactive); in the experiment on Malme-3M it was 20.7 µM (inactive); in the experiment on NCI-H522 it was 15.9 µM (inactive); with OVCAR-4, 15.1 µM (inactive). In addition, the GI50 in the experiment on OVCAR-8 is 21.9 µM (inactive); in the experiment with RXF 393, 16.9 µM (inactive); in the experiment with SF-295 it was 16 µM (inactive); with SK-MEL-28 it was 21.4 µM (inactive); in the experiment on SK-MEL-5 it was 15.1 µM (inactive); with T47D, 14.4 µM (inactive). Besides, in the experiment on UO-31, the GI50 is 20.3 µM (inactive).
